Data from PubChem BioAssay (NCI).
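Cells were grown in 96-well plates and exposed to each compound for 48 hours at five concentrations; endpoints were interpolated linearly between bracketing concentrations, or set to the highest concentration if not reached. Abbreviation: GI50, concentration required for 50% inhibition of growth. Definition used: TGI = concentration required for complete inhibition of growth.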

Columns and labels:
Experiment in all cases: DTP human tumour cell line panel, 48 h
UACC-62 melanoma = test system: UACC-62 melanoma
HL-60(TB) leukemia = test system: HL-60(TB) leukemia
OVCAR-5 ovarian = test system: OVCAR-5 ovarian
OVCAR-8 ovarian = test system: OVCAR-8 ovarian
HCT-15 colon = test system: HCT-15 colon
SF-539 CNS = test system: SF-539 CNS
SK-MEL-28 melanoma = test system: SK-MEL-28 melanoma
HOP-92 NSCLC = test system: HOP-92 NSCLC
MDA-MB-231 breast = test system: MDA-MB-231 breast
786-0 renal = test system: 786-0 renal
HS 578T breast = test system: HS 578T breast
TK-10 renal = test system: TK-10 renal
NCI/ADR-RES ovarian = test system: NCI/ADR-RES ovarian
SN12C renal = test system: SN12C renal
SW-620 colon = test system: SW-620 colon
CAKI-1 renal = test system: CAKI-1 renal
IGROV1 ovarian = test system: IGROV1 ovarian
SNB-19 CNS = test system: SNB-19 CNS
A498 renal = test system: A498 renal
UO-31 renal = test system: UO-31 renal
UACC-257 melanoma = test system: UACC-257 melanoma
ACHN renal = test system: ACHN renal
EKVX NSCLC = test system: EKVX NSCLC
SNB-75 CNS = test system: SNB-75 CNS
NCI-H460 lung = test system: NCI-H460 lung
KM12 colon = test system: KM12 colon
MOLT-4 leukemia = test system: MOLT-4 leukemia
SF-295 CNS = test system: SF-295 CNS
NCI-H226 lung = test system: NCI-H226 lung
T-47D breast = test system: T-47D breast
SR leukemia = test system: SR leukemia
DU-145 prostate = test system: DU-145 prostate
RPMI-8226 leukemia = test system: RPMI-8226 leukemia
K-562 leukemia = test system: K-562 leukemia
SF-268 CNS = test system: SF-268 CNS
OVCAR-3 ovarian = test system: OVCAR-3 ovarian
SK-MEL-5 melanoma = test system: SK-MEL-5 melanoma
CCRF-CEM leukemia = test system: CCRF-CEM leukemia
HCC-2998 colon = test system: HCC-2998 colon
PC-3 prostate = test system: PC-3 prostate
HOP-62 NSCLC = test system: HOP-62 NSCLC
BT-549 breast = test system: BT-549 breast
SK-OV-3 ovarian = test system: SK-OV-3 ovarian
MDA-MB-435 = test system: MDA-MB-435
MCF7 breast = test system: MCF7 breast
SK-MEL-2 melanoma = test system: SK-MEL-2 melanoma
RXF 393 renal = test system: RXF 393 renal
LOX IMVI melanoma = test system: LOX IMVI melanoma

## Clc1ccc2oc3c(NCCCN4CCOCC4)c4ccccc4nc3c2c1
UACC-62 melanoma
  GI50: 2.17 µM
  TGI: 5.07 µM
HL-60(TB) leukemia
  GI50: 0.295 µM
  TGI: 1.21 µM
OVCAR-5 ovarian
  GI50: 1.83 µM
  TGI: 5.28 µM
OVCAR-8 ovarian
  GI50: 1.82 µM
  TGI: 5.1 µM
HCT-15 colon
  GI50: 1.53 µM
  TGI: 5.33 µM
SF-539 CNS
  GI50: 1.56 µM
  TGI: 2.92 µM
SK-MEL-28 melanoma
  GI50: 1.72 µM
  TGI: 3.16 µM
HOP-92 NSCLC
  GI50: 1.32 µM
  TGI: 5.64 µM
MDA-MB-231 breast
  GI50: 2.27 µM
  TGI: 8.43 µM
786-0 renal
  GI50: 1.61 µM
  TGI: 4.45 µM
HS 578T breast
  GI50: 3.43 µM
  TGI: 22.6 µM
TK-10 renal
  GI50: 4.61 µM
  TGI: 20.7 µM
NCI/ADR-RES ovarian
  GI50: 1.01 µM
  TGI: 5.55 µM
SN12C renal
  GI50: 1.6 µM
  TGI: 6.36 µM
SW-620 colon
  GI50: 0.839 µM
  TGI: 3.21 µM
CAKI-1 renal
  GI50: 1.4 µM
  TGI: 3.21 µM
IGROV1 ovarian
  GI50: 2.79 µM
  TGI: 22.2 µM
SNB-19 CNS
  GI50: 3.48 µM
  TGI: 20 µM
A498 renal
  GI50: 4.06 µM
  TGI: 17 µM
UO-31 renal
  GI50: 1.34 µM
  TGI: 3.68 µM
UACC-257 melanoma
  GI50: 1.78 µM
  TGI: 3.5 µM
ACHN renal
  GI50: 0.88 µM
  TGI: 2.59 µM
EKVX NSCLC
  GI50: 2.89 µM
  TGI: 10.1 µM
SNB-75 CNS
  GI50: 1.77 µM
  TGI: 5.88 µM
NCI-H460 lung
  GI50: 1.18 µM
  TGI: 3.38 µM
KM12 colon
  GI50: 2.49 µM
  TGI: > 100 µM
MOLT-4 leukemia
  GI50: 0.534 µM
  TGI: 12.7 µM
SF-295 CNS
  GI50: 2.76 µM
  TGI: 11.3 µM
NCI-H226 lung
  GI50: 2.2 µM
  TGI: 6.2 µM
T-47D breast
  GI50: 3.06 µM
  TGI: 18.9 µM
SR leukemia
  GI50: 1.69 µM
  TGI: 8.9 µM
DU-145 prostate
  GI50: 2.76 µM
  TGI: 11.5 µM
RPMI-8226 leukemia
  GI50: 2.12 µM
  TGI: 5.05 µM
K-562 leukemia
  GI50: 1.56 µM
  TGI: 10.2 µM
SF-268 CNS
  GI50: 2.32 µM
  TGI: > 100 µM
OVCAR-3 ovarian
  GI50: 3.29 µM
  TGI: 34.7 µM
SK-MEL-5 melanoma
  GI50: 4.15 µM
  TGI: 15.7 µM
CCRF-CEM leukemia
  GI50: 0.117 µM
  TGI: 5.48 µM
HCC-2998 colon
  GI50: 1.36 µM
  TGI: 3.11 µM
PC-3 prostate
  GI50: 1.78 µM
  TGI: 3.99 µM
HOP-62 NSCLC
  GI50: 1.72 µM
  TGI: 4.65 µM
BT-549 breast
  GI50: 2.37 µM
  TGI: 5.51 µM
SK-OV-3 ovarian
  GI50: 3.23 µM
  TGI: 17.1 µM
MDA-MB-435
  GI50: 1.66 µM
  TGI: 3.35 µM
MCF7 breast
  GI50: 1.17 µM
  TGI: 3.16 µM
SK-MEL-2 melanoma
  GI50: 3 µM
  TGI: 8.79 µM
RXF 393 renal
  GI50: 1.41 µM
  TGI: 2.8 µM
LOX IMVI melanoma
  GI50: 1.27 µM
  TGI: 2.77 µM
